In US20190053492A1, “SUBSTITUTED PYRIDINE COMPOUNDS AS PESTICIDES” (Bayer CropScience Aktiengesellschaft, priority 2016, published 2019):
Read-outs that look alike come from different tables or passages of the source.

How the values were obtained:
Phaedon cochleariae = Phaedon cochleariae spray test; assay type: in vivo; details: after 7 days, Chinese cabbage leaf discs; for pest or weed control at 100 g/ha / pest or weed control at 500 g/ha: Phaedon cochleariae, foliar, 168 h, read-out: efficacy (beetle larvae killed)
Outline: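 Larval kill read at day 7 as percent, where 100% means every larva dead and 0% none; larvae were placed on dried Brassica pekinensis leaf discs previously sprayed with the formulation (acetone/dimethylformamide solvent, alkylaryl polyglycol ether emulsifier, water).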

Spodoptera frugiperda = Spodoptera frugiperda spray test; assay type: in vivo; details: after 7 days, maize leaf discs
Outline: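 Efficacy in % was scored at 7 days against armyworm caterpillars placed on dried, compound-sprayed Zea mays leaf discs. Compound was dissolved in acetone/dimethylformamide and diluted in water with 1000 ppm alkylaryl polyglycol ether. 100% means all caterpillars were killed.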

[1] = log P by HPLC on reversed-phase column (C 18), EEC Directive 79/831 Annex V.A8; assay type: physicochemical; details: 55° C.; for LOGP_HCOOH: log P (HCOOH); for chromatographic logP: reversed-phase HPLC column (C 18)
Protocol: Temperature: 55° C. […] Called log P (HCOOH) in the table. […] Called log P (neutral) in the table.

[2] = acidic range at pH 2.7, 0.1% aqueous formic acid and acetonitrile, HPLC on reversed-phase column (C 18)
[3] = log P, neutral range, HPLC on reversed-phase column (C 18)
[4] = Spodoptera frugiperda, foliar, 168 h, application rate 500 g/ha, read-out: efficacy (caterpillars killed)
[5] = pH 2.7, LC-MS acidic range, pH 2.7, 0.1% formic acid/acetonitrile, read-out: log P (acidic) / log P (HCOOH)
[6] = pH 7.8, LC-MS neutral range, pH 7.8, ammonium hydrogencarbonate/acetonitrile, read-out: log P (neutral)

SMILES | efficacy (beetle larvae killed) (Phaedon cochleariae; application rate 100 g/ha) [%] | efficacy (beetle larvae killed) (Phaedon cochleariae; application rate 500 g/ha) [%] | efficacy (caterpillars killed) (Spodoptera frugiperda; application rate 100 g/ha) [%] | efficacy (caterpillars killed) (Spodoptera frugiperda; application rate 500 g/ha) [%] | LOGP_HCOOH [1, 2] | LOGP_NEUTRAL [1, 3] | pest or weed control at 100 g/ha (Phaedon cochleariae; application rate 100 g/ha) [%] | pest or weed control at 500 g/ha (Phaedon cochleariae; application rate 500 g/ha) [%] | pest or weed control at 500 g/ha (Spodoptera frugiperda; [4]) [%] | chromatographic logP [1, 5] | chromatographic logP [1, 6] | pest or weed control at 100 g/ha (Spodoptera frugiperda; Spodoptera frugiperda, foliar, 168 h, application rate 100 g/ha, read-out: efficacy (caterpillars killed)) [%] | LOGP_HCOOH ([1]; acidic range pH 2.7, 0.1% aqueous formic acid and acetonitrile, reversed-phase column (C 18)) | LOGP_NEUTRAL ([1]; log P (neutral), HPLC reversed-phase column (C 18))
N#Cc1ccc(CNC(=O)c2cc(-c3ccc(OC(F)(F)C(F)F)cc3)cc(NC(=O)C3CC3)n2)cc1 [Example I-153] | 100 | 100 | 100 | 100 | 3.60 | 3.48 |  |  |  |  |  |  |  | 
N#CCCCCNC(=O)c1cc(-c2ccc(OC(F)(F)F)cc2)cc(NC(=O)C2CC2)n1 [Example I-157] |  | 100 | 100 | 83 | 3.38 | 3.26 |  |  |  |  |  |  |  | 
N#CC1CCC(CNC(=O)c2cc(-c3ccc(OC(F)(F)F)cc3)cc(NC(=O)C3CC3)n2)CC1 (stereo not drawn) [Example I-161] | 83 | 100 | 100 | 100 | 3.87 | 3.74 |  |  |  |  |  |  |  | 
N#Cc1ccc(CNC(=O)c2cc(-c3ccc(C(F)(F)F)cn3)cc(NC(=O)C3CC3)n2)cc1 [Example I-174, N-(4-Cyanobenzyl)-6′-[(cyclopropylcarbonyl)amino]-5-(trifluoromethyl)-2,4′-bipyridine-2′-carboxamide] |  |  |  |  | 3.25 | 3.22 | 100 | 100 | 100 | 3.25 | 3.22 |  |  | 
N#Cc1ccc(CNC(=O)c2cc(-c3ccc(OC(F)(F)C(F)(F)F)cc3)cc(NC(=O)C3CC3)n2)cc1 [Example I-191] |  | 83 |  | 100 | 4.38 |  |  |  |  |  |  |  |  | 
CC(=O)Nc1cc(-c2ccc(OC(F)(F)F)cc2)cc(C(=O)NCc2ccc(C#N)cc2)n1 [Example I-204] | 100 | 100 | 100 | 100 |  | 3.27 |  |  |  |  |  |  |  | 
N#Cc1ccc(CNC(=O)c2cc(-c3ccc(OC(F)(F)F)cc3)cc(NC(=O)C3(Cl)CC3)n2)cc1 [Example I-205] |  | 100 | 100 | 100 |  | 4.62 |  |  |  |  |  |  |  | 
CC(C)(C)C(=O)Nc1cc(-c2ccc(OC(F)(F)F)cc2)cc(C(=O)NCc2ccc(C#N)cc2)n1 [Example I-206] |  | 100 | 100 | 100 |  | 4.45 |  |  |  |  |  |  |  | 
N#Cc1ccc(CNC(=O)c2cc(-c3cccc(OC(F)(F)F)c3)cc(NC(=O)C3CC3)n2)cc1 [Example I-208] | 100 | 100 | 100 |  | 3.81 | 3.71 |  |  |  |  |  |  |  | 
NC(=S)c1ccc(CNC(=O)c2cc(-c3ccc(OC(F)(F)F)cc3)cc(NC(=O)C3CC3)n2)cc1 [Example I-214] | 83 |  | 100 | 100 | 3.45 | 3.35 |  |  |  |  |  |  |  | 
CN(C(=O)C1CC1)c1cc(-c2ccc(OC(F)(F)F)cc2)cc(C(=O)NCc2ccc(C#N)cc2)n1 [Example I-215, N-(4-Cyanobenzyl)-6-[(cyclopropylcarbonyl)(methyl)amino]-4-[4-(trifluoromethoxy)phenyl]pyridine-2-carboxamide] |  |  |  |  | 3.85 | 3.84 | 100 |  | 83 | 3.85 | 3.84 | 100 |  | 
CC(C)ONC(=O)c1cc(-c2ccc(OC(F)(F)F)cc2)cc(NC(=O)C2CC2)n1 [Example I-237, 6-[(Cyclopropylcarbonyl)amino]-N-isopropoxy-4-[4-(trifluoromethoxy)phenyl]pyridine-2-carboxamide] |  |  |  |  |  |  |  | 83 | 100 | 3.5 | 3.45 |  | 3.50 | 3.45
